Laboratory results published in US20230031406A1, “COMPOUNDS AND COMPOSITIONS FOR TREATING CONDITIONS ASSOCIATED WITH NLRP ACTIVITY” (Novartis AG, priority 2018, published 2023).
Like-named read-outs stand apart in the source and are kept apart here. Each block holds one compound with its values, some of them ahead of it.

Test system: PMA-differentiated THP-1 cells
Assay: IL-1β production in PMA-differentiated THP-1 cells stimulated with gramicidin (hTHP-1 assay containing 2% fetal bovine serum; Procedures 1 and 2)
Type: cell-based, human
Method: The following protocol is suitable for testing the activity of the compounds disclosed herein. Procedure 1: IL-1β Production in PMA-Differentiated THP-1 Cells Stimulated with Gramicidin.
THP-1 cells were purchased from the American Type Culture Collection and sub-cultured according to instructions from the supplier. Cells were cultured in complete RPMI 1640 (containing 10% heat inactivated FBS, penicillin (100 units/ml) and streptomycin (100 μg/ml)), and maintained in log phase prior to experimental setup. Prior to the experiment, compounds were dissolved in dimethyl sulfoxide (DMSO) to generate a 30 mM stock. The compound stock was first pre-diluted in DMSO to 3, 0.34, 0.042 and 0.0083 mM intermediate concentrations and subsequently spotted using Echo550 liquid handler into an empty 384-well assay plate to achieve desired final concentration (e.g. 100, 33, 11, 3.7, 1.2, 0.41, 0.14, 0.046, 0.015, 0.0051, 0.0017 μM). DMSO was backfilled in the plate to achieve a final DMSO assay concentration of 0.37%. The plate was then sealed and stored at room temperature until required.
THP-1 cells were treated with PMA (Phorbol 12-myristate 13-acetate) (20 ng/ml) for 16-18 hours. On the day of the experiment the media was removed and adherent cells were detached with trypsin for 5 minutes. Cells were then harvested, washed with complete RPMI 1640, spun down, and resuspended in RPMI 1640 (containing 2% heat inactivated FBS, penicillin (100 units/ml) and streptomycin (100 μg/ml). The cells were plated in the 384-well assay plate containing the spotted compounds at a density of 50,000 cells/well (final assay volume 50 μl). Cells were incubated with compounds for 1 hour and then stimulated with gramicidin (5 μM) (Enzo) for 2 hours. Plates were then centrifuged at 340 g for 5 min. Cell free supernatant (40 μL) was collected using a 96—CHannel PlateMaster (Gilson) and the production of IL-1β was evaluated by HTRF (cisbio). The plates were incubated for 18 h at 4° C. and read using the preset HTRF program (donor emission at 620 nm, acceptor emission at 668 nm) of the SpectraMax i3x spectrophotometer (Molecular Devices, software SoftMax 6). A vehicle only control and a dose titration of CRID3 (100-0.0017 μM) were run concurrently with each experiment.
Procedure 2: IL-1β Production in PMA-Differentiated THP-1 Cells Stimulated with Gramicidin.
THP-1 cells were purchased from the American Type Culture Collection and sub-cultured according to instructions from the supplier. Prior to experiments, cells were cultured in complete RPMI 1640 (containing 10% heat inactivated FBS, penicillin (100 units/ml) and streptomycin (100 μg/ml)), and maintained in log phase prior to experimental setup. Prior to the experiment THP-1 were treated with PMA (Phorbol 12-myristate 13-acetate) (20 ng/ml) for 16-18 hours. Compounds were dissolved in dimethyl sulfoxide (DMSO) to generate a 30mM stock. On the day of the experiment the media was removed and adherent cells were detached with trypsin for 5 minutes. Cells were then harvested, washed with complete RPMI 1640, spun down, resuspended in RPMI 1640 (containing 2% heat inactivated FBS, penicillin (100 units/ml) and streptomycin (100 μg/ml). The cells were plated in a 384-well plate at a density of 50,000 cells/well (final assay volume […]). Compounds were first dissolved in assay medium to obtain a 5× top concentration of 500 μM. 10 step dilutions (1:3) were then undertaken in assay medium containing 1.67% DMSO. 5× compound solutions were added to the culture medium to achieve desired final concentration (e.g. 100, 33, 11, 3.7, 1.2, 0.41, 0.14, 0.046, 0.015, 0.0051, 0.0017 μM). Final DMSO concentration was at 0.37%. Cells were incubated with compounds for 1 hour and then stimulated with gramicidin (5 μM) (Enzo) for 2 hours. Plates were then centrifuged at 340 g for 5 min. Cell free supernatant (40 μL) was collected using a 96—CHannel PlateMaster (Gilson) and the production of IL-1β was evaluated by HTRF (cisbio). […]

[1] = Homo sapiens, THP-1, Table B3, hTHP-1 assay, 2% fetal bovine serum, class symbols, read-out: IC50
[2] = Table B4, 2% fetal bovine serum, class symbols, read-out: hTHP-1 IC50
[3] = Table B2, 2% fetal bovine serum, class symbols, read-out: hTHP-1 IC50
[4] = Table B1, 2% fetal bovine serum, class symbols, read-out: Average IC50 of compounds in hTHP-1 assay: hTHP-1 IC50
[5] = Homo sapiens, THP-1, Table B2, 2% fetal bovine serum, class symbols, read-out: hTHP-1 IC50

Structure (SMILES): CC1CCc2c1nc1c(c2NC(=O)N=S(N)(=O)c2cnn(C(C)C)c2)CCC1 (single isomer, unassigned) [Compound 171b, (R, S) and (R, R) or (S, R) and (S, S)-1-Isopropyl-N′-((3-methyl-1,2,3,5,6,7-hexahydrodicyclopenta [b,e]pyridin-8-yl)carbamoyl)-1H-pyrazole-4-sulfonimidamide]
- IC50 [3]: 5 to 30 µM

Structure (SMILES): CC(C)c1ncc(F)c(C(C)C)c1NC(=O)N=S(N)(=O)c1cnc(C(C)(C)O)s1 (single isomer, unassigned) [Compound 164b, (S) or (R)-N′-((5-fluoro-2,4-diisopropylpyridin-3-yl)carbamoyl)-2-(2-hydroxypropan-2-yl)thiazole-5-sulfonimidamide]
- IC50 [4]: 5 to 30 µM

Structure (SMILES): C[C@@H]1CCc2c1nc1c(c2NC(=O)N=S(N)(=O)c2cc(F)c(C(C)(C)O)s2)CCC1 (single isomer, unassigned) [Compound 616b, (S) or (R)-4-Fluoro-5-(2-hydroxypropan-2-yl)-N′-(((R)-3-methyl-1,2,3,5,6,7-hexahydrodicyclopenta [b,e]pyridin-8-yl)carbamoyl) thiophene-2-sulfonimidamide]
- IC50 [3]: 5 to 30 µM

Structure (SMILES): CC1CCc2c1nc1c(c2NC(=O)N=S(N)(=O)c2cc(C(C)(C)O)cs2)CCC1C [Compound 131b, (S) and (S,R,R) and (S,S,S)-N′-((3,5-dimethyl-1,2,3,5,6,7-hexahydro-dicyclopenta[b,e]py-ridin-8-yl)carbamoyl)-4-(2-hydroxypropan-2-yl)thiophene-2-sulfonimidamide]
- IC50 [4]: 5 to 30 µM

Structure (SMILES): Cc1c(C2CC2)nc2c(c1NC(=O)N=S(N)(=O)c1sc(C(C)(C)O)cc1F)CCC2 (single isomer, unassigned) [Compound 174b, (S) or (R)-N′-((2-cyclopropyl-3-methyl-6,7-dihydro-5H-cyclopenta[b]pyridin-4-yl)carbamoyl)-3-fluoro-5-(2-hydroxypropan-2-yl)thiophene-2-sulfonimidamide]
- IC50 [4]: 0.04 to 0.2 µM

Structure (SMILES): CCc1csc(S(N)(=O)=NC(=O)Nc2c3c(nc4c2CC[C@H]4C)CCC3)c1 (single isomer, unassigned) [Compound 721a, (S) or (R)-4-Ethyl-N′-(((R)-3-methyl-1,2,3,5,6,7-hexahydrodicyclopenta[b, e]pyridin-8-yl)carbamoylithiophene-2-sulfonimidamide]
- IC50 [3]: 5 to 30 µM

Structure (SMILES): CC(C)n1cc(F)c(S(N)(=O)=NC(=O)Nc2c3c(nc(C(F)(F)F)c2C2CC2)CCC3)n1 (stereo not shown) [Compound 1104, N′-((3-cyclopropyl-2-(trifluoromethyl)-6,7-dihydro-5H-cyclopenta[b]pyridin-4-yl)carbamoyl)-4-fluoro-1-isopropyl-1H-pyrazole-3-sulfonimidamide]
- IC50 (Homo sapiens, THP-1, read-out: hTHP-1 IC50 in 2% FBS, hTHP-1 assay containing 2% fetal bovine serum, Table B5): 0.2 to 1 µM

Structure (SMILES): Cc1c(C(F)(F)F)nc2c(c1NC(=O)N=S(N)(=O)c1cnc(C(C)(C)O)s1)CCC2C (stereo not shown) [Compound 608, N′-((3,7-dimethyl-2-(trifluoromethyl)-6,7-dihydro-5H-cyclopenta[b]pyridin-4-yl)carbamoyl)-2-(2-hydroxypropan-2-yl)thiazole-5-sulfonimidamide]
- IC50 [3]: 1 to 5 µM

Structure (SMILES): CC(C)n1ccc(S(N)(=O)=NC(=O)Nc2c3c(nc4c2CCC4(C)C)CCC3)n1 (single isomer, unassigned) [Compound 126b, (S) or (R)-N′-((3,3-dimethyl-1,2,3,5,6,7-hexahydro-dicyclopenta[b,e]pyridin-8-yl)carbamoyl)-1-isopropyl-1H-pyrazole-3-sulfonimidamide]
- IC50 [4]: 5 to 30 µM

Structure (SMILES): CC(C)c1nc2c(cc1NC(=O)N=S(N)(=O)c1cnc(C(C)(C)O)s1)CCC2 (stereo not shown) [Compound 601, 2-(2-Hydroxypropan-2-yl)-N′-((2-isopropyl-6,7-dihydro-5H-cyclopenta[b]pyridin-3-yl)carbamoyl)thiazole-5-sulfonimidamide]
- IC50 [5]: 5 to 30 µM

Structure (SMILES): CC1CCc2c1nc1c(c2NC(=O)N=S(N)(=O)c2ccc(CN(C)C)cc2)CCC1 (single isomer, unassigned) [Compound 134bb, (R,S) or (R,R)-4-((dimethyl-amino)methyl)-N′-((3-methyl-1,2,3,5,6,7-hexa-hydrodicyclo-penta[b,e]pyridin-8-yl)carbamoyl)benzene-sulfonamidamide]
- IC50 [4]: 5 to 30 µM

Structure (SMILES): Cc1c(C(F)(F)F)nc2c(c1NC(=O)N=[S@](N)(=O)c1cnc(C(C)(C)O)s1)CC[C@H]2C [Compound 608b]
- IC50 [5]: 5 to 30 µM

Other lines, results leading:

- IC50 [1]: 1 to 5 µM
Structure (SMILES): Cc1c(C(F)(F)F)nc2c(c1NC(=O)N=[S@@](N)(=O)c1cnc(C(C)(C)O)s1)C(C)CC2 (stereo partly drawn) [Example 575, (R)-N′-((3,5-dimethyl-2-(trifluoromethyl)-6,7-dihydro-5H-cyclopenta[b]pyridin-4-yl)carbamoyl)-2-(2-hydroxypropan-2-yl)thiazole-5-sulfonimidamide]

- IC50 [2]: 5 to 30 µM
Structure (SMILES): CCc1c(C(F)(F)F)nc2c(c1NC(=O)N=S(N)(=O)c1nn(CC)cc1F)CCC2 (single isomer, unassigned) [Example 772, (S) or (R)-1-ethyl-N′-((3-ethyl-2-(trifluoromethyl)-6,7-dihydro-5H-cyclopenta[b]pyridin-4-yl)carbamoyl)-4-fluoro-1H-pyrazole-3-sulfonimidamide]

- IC50 (Table B3, hTHP-1 assay, 2% fetal bovine serum, class symbols, read-out: IC50): 5 to 30 µM
Structure (SMILES): NS(=O)(=NC(=O)Nc1c2c(nc3c1CCC31CC1)CCC2)c1ccn(CCO)n1 (single isomer, unassigned) [Example 648, (S) or (R)-1-(2-hydroxyethyl)-N′-((1′,5′,6′,7′-tetrahydro-2′H-spiro[cyclopropane-1,3′-dicyclopenta[b,e]pyridin]-8′-yl)carbamoyl)-1H-pyrazole-3-sulfonimidamide]

- IC50 [1]: 0.2 to 1 µM
Structure (SMILES): CC(=O)c1csc(S(N)(=O)=NC(=O)Nc2c3c(nc4c2CC[C@H]4C)CCC3)c1 (stereo partly drawn) [Example 627, 4-Acetyl-N′-(((R)-3-methyl-1,2,3,5,6,7-hexahydrodicyclopenta[b,e]pyridin-8-yl)carbamoyl)thiophene-2-sulfonimidamide]

- IC50 [1]: 5 to 30 µM
Structure (SMILES): CC(C)(O)c1cccc(S(N)(=O)=NC(=O)Nc2c3c(nc4c2CCC4(C)C)CCC3)n1 (stereo not shown) [Example 630, N′-((3,3-dimethyl-1,2,3,5,6,7-hexahydrodicyclopenta[b,e]pyridin-8-yl)carbamoyl)-6-(2-hydroxypropan-2-yl)pyridine-2-sulfonimidamide]

- IC50 [2]: 5 to 30 µM
Structure (SMILES): CCn1cc(F)c(S(N)(=O)=NC(=O)Nc2c(-c3ccccc3)cnc3c2CCC3)n1 (single isomer, unassigned) [Example 794, (S) or (R)-1-ethyl-4-fluoro-N′-((3-phenyl-6,7-dihydro-5H-cyclopenta[b]pyridin-4-yl)carbamoyl)-1H-pyrazole-3-sulfonimidamide]

- IC50 [1]: 5 to 30 µM
Structure (SMILES): C[C@H](O)c1csc([S@@](N)(=O)=NC(=O)Nc2c3c(nc4c2CC[C@H]4C)CCC3)c1 (single isomer, unassigned) [Example 662, (S)-4-((S) or (R)-1-hydroxyethyl)-N′-(((R)-3-methyl-1,2,3,5,6,7-hexahydrodicyclopenta[b,e]pyridin-8-yl)carbamoyl)thiophene-2-sulfonimidamide]
